Source: patent US20230055237A1, “COMPOUNDS AND METHODS FOR THE TREATMENT OF CYSTIC FIBROSIS” (Flatley Discovery Lab, LLC, priority 2019, published 2023)

Biological target: T1, CFTR (Homo sapiens, UniProt P13569, DEL508-508)
T1 construct: Primary CF airway epithelial cells were obtained from the UNC Cystic Fibrosis Tissue Procurement and Cell Culture Core; host or cells: primary CF airway epithelial cells, differentiated at the air-liquid interface
Assay: Equivalent current assay in primary CF airway epithelial cells (NAUC, combination with 1st site corrector FDL169 or VX-809)
Format: cell-based
Settings: 37° C., 24 h

[1] = test compound 1 μM in combination with 1st site corrector VX-809 (3 μM)
[2] = test compound 3 μM in combination with 1st site corrector VX-809 (3 μM)
[3] = test compound 10 μM in combination with 1st site corrector VX-809 (3 μM)
[4] = test compound 1 μM in combination with 1st site corrector FDL169 (3 μM)
[5] = test compound 3 μM in combination with 1st site corrector FDL169 (3 μM)
[6] = test compound 10 μM in combination with 1st site corrector FDL169 (3 μM)

T1 sequence (P13569 with tags, fused parts or gaps DEL508-508): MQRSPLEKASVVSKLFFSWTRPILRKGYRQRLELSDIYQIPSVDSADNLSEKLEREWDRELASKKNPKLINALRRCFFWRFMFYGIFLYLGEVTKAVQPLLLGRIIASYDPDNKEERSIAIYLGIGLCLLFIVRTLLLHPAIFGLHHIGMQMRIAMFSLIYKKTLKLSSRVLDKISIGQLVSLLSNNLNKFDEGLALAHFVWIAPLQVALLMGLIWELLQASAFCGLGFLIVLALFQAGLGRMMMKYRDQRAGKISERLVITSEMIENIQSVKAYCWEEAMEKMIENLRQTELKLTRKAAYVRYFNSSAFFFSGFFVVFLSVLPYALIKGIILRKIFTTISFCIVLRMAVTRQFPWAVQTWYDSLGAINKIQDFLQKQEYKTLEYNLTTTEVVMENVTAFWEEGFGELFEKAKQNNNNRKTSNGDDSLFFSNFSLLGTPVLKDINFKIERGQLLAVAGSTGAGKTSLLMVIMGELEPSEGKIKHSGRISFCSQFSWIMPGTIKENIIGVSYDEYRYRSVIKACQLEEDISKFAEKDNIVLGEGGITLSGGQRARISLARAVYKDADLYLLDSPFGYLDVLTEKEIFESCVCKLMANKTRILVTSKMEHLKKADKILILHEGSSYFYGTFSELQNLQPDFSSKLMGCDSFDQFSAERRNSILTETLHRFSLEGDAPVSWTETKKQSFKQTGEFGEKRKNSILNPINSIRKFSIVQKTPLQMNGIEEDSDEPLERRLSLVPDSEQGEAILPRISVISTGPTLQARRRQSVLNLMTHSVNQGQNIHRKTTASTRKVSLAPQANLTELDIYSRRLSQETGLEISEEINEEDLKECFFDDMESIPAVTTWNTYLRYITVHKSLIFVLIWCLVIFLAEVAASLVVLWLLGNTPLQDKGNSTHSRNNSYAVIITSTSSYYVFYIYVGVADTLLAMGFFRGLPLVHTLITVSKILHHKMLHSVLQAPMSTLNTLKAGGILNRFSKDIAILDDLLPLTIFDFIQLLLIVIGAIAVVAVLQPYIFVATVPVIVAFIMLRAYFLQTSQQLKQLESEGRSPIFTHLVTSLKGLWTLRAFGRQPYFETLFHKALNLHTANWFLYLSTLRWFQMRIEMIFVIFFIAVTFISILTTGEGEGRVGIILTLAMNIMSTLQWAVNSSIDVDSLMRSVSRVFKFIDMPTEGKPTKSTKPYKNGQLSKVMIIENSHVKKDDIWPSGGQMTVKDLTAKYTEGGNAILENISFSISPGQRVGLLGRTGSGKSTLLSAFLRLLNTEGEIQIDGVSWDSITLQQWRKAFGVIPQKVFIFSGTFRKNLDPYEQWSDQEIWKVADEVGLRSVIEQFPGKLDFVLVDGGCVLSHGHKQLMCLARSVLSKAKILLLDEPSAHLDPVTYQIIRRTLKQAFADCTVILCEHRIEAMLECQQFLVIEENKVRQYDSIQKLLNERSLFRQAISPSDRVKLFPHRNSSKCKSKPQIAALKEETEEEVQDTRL

SMILES | Nauc @ 1 μM [1] | Nauc @ 3 μM [2] | Nauc @ 10 μM [3] | Nauc @ 1 μM [4] | Nauc @ 3 μM [5] | Nauc @ 10 μM [6]
CN(C(=O)[C@@H]1[C@H](C(F)(F)F)NC2(C(=O)Nc3c(Cl)cc(Cl)cc32)[C@@H]1C(=O)O)c1cc(Cl)cc(Cl)c1 (single isomer, unassigned) [Example 269a] | + (NAUC “+” refers to an observed NAUC <140% of positive control) | + (NAUC “+” refers to an observed NAUC <140% of positive control) | + (NAUC “+” refers to an observed NAUC <140% of positive control) | – | – | –
CN(C(=O)[C@H]1[C@@H](C(F)(F)F)NC2(C(=O)Nc3c(Cl)cc(Cl)cc32)[C@H]1C(=O)O)c1cc(Cl)cc(Cl)c1 (single isomer, unassigned) [Example 269b] | +++ (NAUC “+++” refers to an observed NAUC>170% of positive control) | +++ (NAUC “+++” refers to an observed NAUC>170% of positive control) | +++ (NAUC “+++” refers to an observed NAUC>170% of positive control) | ++ (NAUC “++” refers to an observed NAUC 170-140% of positive control) | +++ (NAUC “+++” refers to an observed NAUC>170% of positive control) | +++ (NAUC “+++” refers to an observed NAUC>170% of positive control)
O=C(O)[C@@H]1[C@H](C(=O)N(CC2CC2)c2cc(Cl)cc(Cl)c2)[C@H](C(F)(F)F)NC12C(=O)Nc1c(Cl)cc(Cl)cc12 (single isomer, unassigned) [Example 270a] | – | – | – | +++ (NAUC “+++” refers to an observed NAUC>170% of positive control) | +++ (NAUC “+++” refers to an observed NAUC>170% of positive control) | ++ (NAUC “++” refers to an observed NAUC 170-140% of positive control)
O=C(O)[C@H]1[C@@H](C(=O)N(CC2CC2)c2cc(Cl)cc(Cl)c2)[C@@H](C(F)(F)F)NC12C(=O)Nc1c(Cl)cc(Cl)cc12 (single isomer, unassigned) [Example 270b] | – | – | – | + (NAUC “+” refers to an observed NAUC <140% of positive control) | ++ (NAUC “++” refers to an observed NAUC 170-140% of positive control) | –
CN(C(=O)C1C2CC(F)(F)CN2C2(C(=O)Nc3c(Cl)cc(Cl)cc32)C1C(=O)O)c1cc(C(F)(F)F)cc(C(F)(F)F)n1 (single isomer, unassigned) [Example 273a, 1′-((4,6-bis(trifluoromethyl)pyridin-2-yl)(methyl)carbamoyl)-5,7-dichloro-6′,6′-difluoro-2-oxo-1′,2′,5′,6′,7′,7a′-hexahydrospiro[indoline-3,3′-pyrrolizine]-2′-carboxylic acid] | – | – | – | + (NAUC “+” refers to an observed NAUC <140% of positive control) | + (NAUC “+” refers to an observed NAUC <140% of positive control) | –
CN(C(=O)C1C2CC(F)(F)CN2C2(C(=O)Nc3c(Cl)cc(Cl)cc32)C1C(=O)O)c1cc(C(F)(F)F)cc(C(F)(F)F)n1 (single isomer, unassigned) [Example 273b, 1′-((4,6-bis(trifluoromethyl)pyridin-2-yl)(methyl)carbamoyl)-5,7-dichloro-6′,6′-difluoro-2-oxo-1′,2′,5′,6′,7′,7a′-hexahydrospiro[indoline-3,3′-pyrrolizine]-2′-carboxylic acid] | – | – | – | + (NAUC “+” refers to an observed NAUC <140% of positive control) | ++ (NAUC “++” refers to an observed NAUC 170-140% of positive control) | –
CC(C)(C)CN(C(=O)[C@H]1[C@H]2CC(C)(C)CN2C2(C(=O)Nc3c(Cl)cc(Cl)cc32)[C@H]1C(=O)O)c1cc(Cl)cc(Cl)c1 (single isomer, unassigned) [Example 274.6a, (1′R,2′S,7a′R)-5,7-dichloro-1-((3,5-dichlorophenyl)(neopentyl)carbamoyl)-6′,6′-dimethyl-2-oxo1′,2′,5′,6′,7′,7a′-hexahydrospiro[indoline-3,3′-pyrrolizine]-2′-carboxylic acid] | – | – | – | ++ (NAUC “++” refers to an observed NAUC 170-140% of positive control) | + (NAUC “+” refers to an observed NAUC <140% of positive control) | + (NAUC “+” refers to an observed NAUC <140% of positive control)
CC(C)(C)CN(C(=O)[C@H]1[C@@H](C(=O)O)C2(C(=O)Nc3c(Cl)cc(Cl)cc32)N2CC(C)(C)C[C@@H]12)c1cc(Cl)cc(Cl)c1 (single isomer, unassigned) [Example 274.6b, (1′S,2′R,7a′S)-5,7-dichloro-1′-((3,5-dichlorophenyl)(neopentyl)carbamoyl)-6′,6′-dimethyl-2-oxo-1′,2′,5′,6′,7′,7a′-hexahydrospiro[indoline-3,3′-pyrrolizine]-2′-carboxylic acid] | – | – | – | +++ (NAUC “+++” refers to an observed NAUC>170% of positive control) | ++ (NAUC “++” refers to an observed NAUC 170-140% of positive control) | + (NAUC “+” refers to an observed NAUC <140% of positive control)
CC(C)(C)CN(C(=O)[C@H]1[C@H]2CC3(CC3)CN2[C@]2(C(=O)Nc3c(Cl)cc(Cl)cc32)[C@H]1C(=O)O)c1cc(Cl)cc(Cl)c1 (single isomer, unassigned) [Example 275.7a] | – | – | – | +++ (NAUC “+++” refers to an observed NAUC>170% of positive control) | +++ (NAUC “+++” refers to an observed NAUC>170% of positive control) | +++ (NAUC “+++” refers to an observed NAUC>170% of positive control)
CC(C)(C)CN(C(=O)[C@H]1[C@@H](C(=O)O)[C@]2(C(=O)Nc3c(Cl)cc(Cl)cc32)N2CC3(CC3)C[C@@H]12)c1cc(Cl)cc(Cl)c1 (single isomer, unassigned) [Example 275.7b] | – | – | – | +++ (NAUC “+++” refers to an observed NAUC>170% of positive control) | +++ (NAUC “+++” refers to an observed NAUC>170% of positive control) | ++ (NAUC “++” refers to an observed NAUC 170-140% of positive control)
CC(C)(C)c1cccc(C(C)(C)CNC(=O)C2C3CC(F)(F)CN3C3(C(=O)Nc4c(Cl)cc(Cl)cc43)C2C(=O)O)c1 (single isomer, unassigned) [Example 288a, 1′-((2-(3-(tert-butyl)phenyl)-2-methylpropyl)carbamoyl)-5,7-dichloro-6′,6′-difluoro-2-oxo-1′,2′,5′,6′,7′,7a′-hexahydrospiro[indoline-3,3′-pyrrolizine]-2′-carboxylic acid] | +++ (NAUC “+++” refers to an observed NAUC>170% of positive control) | +++ (NAUC “+++” refers to an observed NAUC>170% of positive control) | +++ (NAUC “+++” refers to an observed NAUC>170% of positive control) | – | – | –
O=C(Nc1cc(C(F)(F)F)cc(C(F)(F)F)n1)C1C2CC3(CC3)CN2C2(C(=O)Nc3c(Cl)cc(Cl)cc32)C1C(=O)O (centres unmarked) [Example 1] | – | +++ (NAUC “+++” refers to an observed NAUC>170% of positive control) | +++ (NAUC “+++” refers to an observed NAUC>170% of positive control) | – | – | –
